{"source": "patent US6444467B1", "about": "“Process for production and subsequent ex vitro sowing and propagation of pre-germinated plant somatic embryos” (Cellfor Inc., priority 1998, dated 2002)", "tested_on": "spruce somatic embryos", "assay": "ex vitro re-germination of desiccated, pre-germinated spruce somatic embryos after ABA treatment", "format": "in vivo", "conditions": "90 min in darkness", "source_text": "Somatic embryos of interior spruce (Picea glauca (Moench) Voss x P. engelmannii Parry ex Engelm.) lines I-1026, and 10-1418 were produced and dried with a high-relative-humidity treatment (HRHT) according to the methods of Roberts et al. (1990a; 1990b) and Webster et al. (1990).\nTwo groups of dried embryos for each of the two genotypes, were germinated on Whatman #1 filter paper on a thin layer of cotton in polycarbonate boxes. The liquid germination medium was modified GMD medium (NH4^+—N/NO3^−—N ratio was 1.4; phosphate concentration was 6 mM; 3% sucrose). After the embryos were sown onto the filter paper, the liquid level in the germination boxes was adjusted to provide a liquid film surrounding the surface of embryos situated at the interface with the solid support. The boxes were sealed with Parafilm and placed in a controlled environment room with the temperature maintained at a constant 23° C.\nThe first group of somatic embryos was germinated for 7 days after which, the polycarbonate boxes containing the germinants were transferred into refrigerated storage (i.e., temperatures were within a range of 8-12° C.) for 72 hours. The germinants were then removed from the cold treatment and subsequently received the various ABA treatments described below. The germinants which received the cold treatment are hereafter referred to as “stored germinants” .\nThis group of germinants is referred to hereafter as “fresh germinants”.\nThe stored and fresh germinants of each genotype were carefully paired into four groups, on wetted paper towel disks in separate 10 cm Petri dishes and received four ABA treatments, said ABA treatments being concentrations of 0, 5, 10, 20 μM, respectively. The ABA treatments were applied in darkness for 90 min.\nAfter the completion of the ABA treatments, the somatic germinants were blot-dried on paper towels. The germinants were then transferred to fresh 5 cm Petri dish. The dishes, two per drying chamber, were placed in drying chambers containing a saturated KCl solution, which provided an atmospheric humidity of 85% RH over the liquid surface in a sealed chamber at 20° C. The somatic germinants were dried for 24 hr in a refrigerated room maintained between 5-8° C. after which, the drying chambers were transferred into a controlled environment room maintained at 20° C. for another 15 h.\nThe dried germinants were sown into 288-cavity miniplug trays (TLC Polyform Inc,. Plymouth Minn., USA, 55441) filled with a peat-based soilless mix comprised of 60% peat and 40% coarse horticultural vermiculite. Each germinant type of each genotype in each ABA treatment was randomly sown into 5 minitrays in blocks of 20 germinants. After sowing, the germinants were covered with a thin layer of coir (1993 Crystal Co., St. Louis, Mo., USA). The trays were wrapped in black plastic bags for 18 hrs to allow slow rehydration of germinants. Then, the trays were misted with a modified GMD nutrient solution (Webster et al., 1990) containing 3% sucrose until the soilless mix and coir became well wetted. The trays were placed in two misting chambers in a controlled environment germination room under light reduced by a 50% shade cloth for the first week. The shade cloth was removed at the end of the first week and the germinants were exposed to a light intensity of 180 μmol m^−2s^−1 photosynthetic photon flux. The chambers were frequently misted to keep the soilless mix moistened. Modified GMD solution with 3% sucrose was sprayed onto the germinants daily. After 7 days, germinants were fertilized weekly with 20-20-20 fertilizer (Plant Products Ltd., Brampton, ON, Canada) to deliver the equivalent of 100 ppm N.", "data": [{"smiles": "CC1=CC(=O)CC(C)(C)[C@@]1(O)/C=C/C(C)=C\\C(=O)O", "note": "[ABA, abscisic acid]", "values": [{"measurement": "Re-germination success (%)", "setting": "genotype 10-1418, \"fresh\" germinants, ABA 5 μM", "value": 53.8, "unit": "%"}, {"measurement": "Re-germination success (%)", "setting": "genotype 10-1418, \"fresh\" germinants, ABA 10 μM", "value": 16.6, "unit": "%"}, {"measurement": "Re-germination success (%)", "setting": "genotype 10-1418, \"fresh\" germinants, ABA 20 μM", "value": 29.8, "unit": "%"}, {"measurement": "Re-germination success (%)", "setting": "genotype 10-1418, \"stored\" germinants, ABA 5 μM", "value": 59.8, "unit": "%"}, {"measurement": "Re-germination success (%)", "setting": "genotype 10-1418, \"stored\" germinants, ABA 10 μM", "value": 57.5, "unit": "%"}, {"measurement": "Re-germination success (%)", "setting": "genotype 10-1418, \"stored\" germinants, ABA 20 μM", "value": 60.0, "unit": "%"}, {"measurement": "Re-germination success (%)", "setting": "genotype I-1026, \"fresh\" germinants, ABA 5 μM", "value": 35.0, "unit": "%"}, {"measurement": "Re-germination success (%)", "setting": "genotype I-1026, \"fresh\" germinants, ABA 10 μM", "value": 53.3, "unit": "%"}, {"measurement": "Re-germination success (%)", "setting": "genotype I-1026, \"fresh\" germinants, ABA 20 μM", "value": 48.2, "unit": "%"}, {"measurement": "Re-germination success (%)", "setting": "genotype I-1026, \"stored\" germinants, ABA 5 μM", "value": 71.8, "unit": "%"}, {"measurement": "Re-germination success (%)", "setting": "genotype I-1026, \"stored\" germinants, ABA 10 μM", "value": 74.3, "unit": "%"}, {"measurement": "Re-germination success (%)", "setting": "genotype I-1026, \"stored\" germinants, ABA 20 μM", "value": 73.5, "unit": "%"}]}]}
